According to US20260262643A1, “HERBICIDAL BENZOXAZINES” (FMC CORPORATION, priority 2022, published 2026):

How the values were obtained:
blackgrass [1] = experiment: Test A preemergence; assay type: in vivo, Alopecurus myosuroides
Procedure, shortened: (§1)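 Plants were grown in loam and sand and treated preemergence or postemergence (one- to two-leaf stage, 2–10 cm) with compound in solvent plus surfactant. Response was scored against untreated controls after 10 greenhouse days, where 0 means no effect and 100 complete control.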

corn [2] = experiment: Test A preemergence; assay type: in vivo, Zea mays
Procedure, shortened: as §1

foxtail, giant [3] = experiment: Test A preemergence; assay type: in vivo, Setaria faberi
Procedure, shortened: as §1

goosegrass [4] = experiment: Test A preemergence; assay type: in vivo, Eleusine indica
Procedure, shortened: as §1

kochia [5] = experiment: Test A preemergence; assay type: in vivo, Bassia scoparia
Procedure, shortened: as §1

oat, wild [6] = experiment: Test A preemergence; assay type: in vivo, Avena fatua
Procedure, shortened: as §1

pigweed, palmer [7] = experiment: Test A preemergence; assay type: in vivo, Amaranthus palmeri
Procedure, shortened: as §1

ragweed [8] = experiment: Test A preemergence; assay type: in vivo, Ambrosia artemisiifolia
Procedure, shortened: as §1

ryegrass, Italian [9] = experiment: Test A preemergence; assay type: in vivo, Lolium multiflorum
Procedure, shortened: as §1

soybean [10] = experiment: Test A preemergence; assay type: in vivo, Glycine max
Procedure, shortened: as §1

wheat [11] = experiment: Test A preemergence; assay type: in vivo, Triticum aestivum
Procedure, shortened: as §1

blackgrass [12] = experiment: Test A postemergence; assay type: in vivo, Alopecurus myosuroides
Procedure, shortened: as §1

corn [13] = experiment: Test A postemergence; assay type: in vivo, Zea mays
Procedure, shortened: as §1

foxtail, giant [14] = experiment: Test A postemergence; assay type: in vivo, Setaria faberi
Procedure, shortened: as §1

goosegrass [15] = experiment: Test A postemergence; assay type: in vivo, Eleusine indica
Procedure, shortened: as §1

kochia [16] = experiment: Test A postemergence; assay type: in vivo, Bassia scoparia
Procedure, shortened: as §1

oat, wild [17] = experiment: Test A postemergence; assay type: in vivo, Avena fatua
Procedure, shortened: as §1

pigweed, palmer [18] = experiment: Test A postemergence; assay type: in vivo, Amaranthus palmeri
Procedure, shortened: as §1

ragweed [19] = experiment: Test A postemergence; assay type: in vivo, Ambrosia artemisiifolia
Procedure, shortened: as §1

ryegrass, Italian [20] = experiment: Test A postemergence; assay type: in vivo, Lolium multiflorum
Procedure, shortened: as §1

soybean [21] = experiment: Test A postemergence; assay type: in vivo, Glycine max
Procedure, shortened: as §1

wheat [22] = experiment: Test A postemergence; assay type: in vivo, Triticum aestivum
Procedure, shortened: as §1

galium = experiment: Test A postemergence; assay type: in vivo, Galium aparine
Procedure, shortened: as §1

barnyardgrass = experiment: Test B flooded paddy test; assay type: in vivo, Echinochloa crus-galli; details: 250 g ai/ha, Flood, 13 days, 0 to 100 scale (0 no effect, 100 complete control)
Procedure, shortened: (§2)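 2-leaf stage; pots flooded 3 cm over soil; compound dosed into paddy water; depth kept constant. Greenhouse, 13 d. Visual rating vs controls, 0 (no effect)–100 (complete control). Dash = no result.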

ducksalad = experiment: Test B flooded paddy test; assay type: in vivo, Heteranthera limosa; details: 250 g ai/ha, Flood, 13 days, 0 to 100 scale (0 no effect, 100 complete control)
Procedure, shortened: as §2

rice = experiment: Test B flooded paddy test; assay type: in vivo, Oryza sativa; details: 250 g ai/ha, Flood, 13 days, 0 to 100 scale (0 no effect, 100 complete control)
Procedure, shortened: as §2

sedge, umbrella = experiment: Test B flooded paddy test; assay type: in vivo, Cyperus difformis; details: 250 g ai/ha, Flood, 13 days, 0 to 100 scale (0 no effect, 100 complete control)
Procedure, shortened: as §2

[23] = 125 g ai/ha, visual injury after 10 days, 0 to 100 scale, 0 is no effect, 100 is complete control
[24] = 500 g ai/ha, 0 to 100 scale (0 no effect, 100 complete control), 10 days
[25] = 125 g ai/ha, postemergence, 10 days, visual injury, 0 to 100 scale (0 no effect, 100 complete control)
[26] = 500 g ai/ha, Postemergence, 0 to 100 scale

SMILES: C[C@H]1CN(C(=O)c2cccc(-n3cncn3)c2)c2cccc(C(F)(F)F)c2O1 [Compound 47]
- Plant response rating, Blackgrass (blackgrass [1]; [23]): 70
- Plant response rating, Blackgrass (blackgrass [1]; [24]): 90
- Plant response rating, Corn (corn [2]; [23]): 0
- Plant response rating, Corn (corn [2]; [24]): 0
- Plant response rating, Foxtail, Giant (foxtail, giant [3]; [23]): 60
- Plant response rating, Foxtail, Giant (foxtail, giant [3]; [24]): 90
- Plant response rating, Goosegrass (goosegrass [4]; [23]): 80
- Plant response rating, Goosegrass (goosegrass [4]; [24]): 100
- Plant response rating, Kochia (kochia [5]; [23]): 0
- Plant response rating, Kochia (kochia [5]; [24]): 50
- Plant response rating, Oat, Wild (oat, wild [6]; [23]): 10
- Plant response rating, Oat, Wild (oat, wild [6]; [24]): 30
- Plant response rating, Pigweed, Palmer (pigweed, palmer [7]; [23]): 60
- Plant response rating, Pigweed, Palmer (pigweed, palmer [7]; [24]): 90
- Plant response rating, Ragweed (ragweed [8]; [23]): 0
- Plant response rating, Ragweed (ragweed [8]; [24]): 0
- Plant response rating, Ryegrass, Italian (ryegrass, Italian [9]; [23]): 80
- Plant response rating, Ryegrass, Italian (ryegrass, Italian [9]; [24]): 90
- Plant response rating, Soybean (soybean [10]; [23]): 0
- Plant response rating, Soybean (soybean [10]; [24]): 40
- Plant response rating, Wheat (wheat [11]; [23]): 0
- Plant response rating, Wheat (wheat [11]; [24]): 20
- Plant response rating, Blackgrass (blackgrass [12]; [25]): 10
- Plant response rating, Blackgrass (blackgrass [12]; [26]): 60
- Plant response rating, Corn (corn [13]; [25]): 30
- Plant response rating, Corn (corn [13]; [26]): 60
- Plant response rating, Foxtail, Giant (foxtail, giant [14]; [25]): 30
- Plant response rating, Foxtail, Giant (foxtail, giant [14]; [26]): 90
- Plant response rating, Goosegrass (goosegrass [15]; [25]): 0
- Plant response rating, Goosegrass (goosegrass [15]; [26]): 20
- Plant response rating, Kochia (kochia [16]; [25]): 50
- Plant response rating, Kochia (kochia [16]; [26]): 90
- Plant response rating, Oat, Wild (oat, wild [17]; [25]): 10
- Plant response rating, Oat, Wild (oat, wild [17]; [26]): 30
- Plant response rating, Pigweed, Palmer (pigweed, palmer [18]; [25]): 70
- Plant response rating, Pigweed, Palmer (pigweed, palmer [18]; [26]): 90
- Plant response rating, Ragweed (ragweed [19]; [25]): 0
- Plant response rating, Ragweed (ragweed [19]; [26]): 0
- Plant response rating, Ryegrass, Italian (ryegrass, Italian [20]; [25]): 30
- Plant response rating, Ryegrass, Italian (ryegrass, Italian [20]; [26]): 90
- Plant response rating, Soybean (soybean [21]; [25]): 80
- Plant response rating, Soybean (soybean [21]; [26]): 100
- Plant response rating, Wheat (wheat [22]; [25]): 20
- Plant response rating, Wheat (wheat [22]; [26]): 40
- Plant response rating, Galium (galium; [25]): 60
- Plant response rating, Galium (galium; [26]): 90
- Plant response rating, Barnyardgrass (barnyardgrass): 0
- Plant response rating, Ducksalad (ducksalad): 0
- Plant response rating, Rice (rice): 0
- Plant response rating, Sedge, Umbrella (sedge, umbrella): 0
